# Key:
# liverwort callus cells = test: Reproduction of green cells: liverwort callus cultivation, fresh weight at 10th day; type: cell-based, liverwort (Harchantia polymorpha L.); settings: liverwort callus fresh weight at 10th day (240 hours); relative value, control area = 100; concentrations (ppm) as in Table 7
# Experimental: In case of a unicellular organism, an individual of this organism can be used itself as a green cell. […] When chlorella is used, a test substance acting as a plant-activating agent is added to an inorganic salt medium for chlorella (test area), and the number of cells (cells/ml) when cultivation is conducted for a certain period can be compared with the number of cells (cells/ml) in the non-added system cultivated under the same condition (control area), for calculation. Further, cells in the form of callus can also be used. As the callus, a liverwort (Harchantia polymorpha L.) callus may be exemplified. When a callus is used, the test substance acting as a plant-activating agent is added to e.g. a sterilized medium for calluses (test area), and the weight of callus when cultivation is conducted for a certain period can be compared with the weight of callus of the non-added system cultivated under the same condition (control area), for calculation. In any case, the concentration of the test substance in the test area is not limited but suitably from 0.1 to 1000 ppm in terms of effective components.
# 100 ml of the medium (MSK2 medium) for liverworts were placed into a 500-ml Erlenmeyer flask, and the flask was capped with a silicon cap having its ventilative property and placed into an autoclave (at a high temperature, under a high pressure, and a sterilized oven) to sterilize the medium (for 20 minutes). Herein, the substance acting as the plant-activating agent was added in a concentration shown in Table 7 into a culturing solution in the test area. After sterilization, the temperature of the medium was returned to a normal temperature. 2 ml of liverwort callus cells under a steady state, which had been sub-cultivated previously, were sucked up by a 2-ml Komagome pipette (measuring pipet) and incubated to the sterilized medium. These operations are conducted in a clean bench when sterilized condition is necessary. Cultivation is carried out in a shaking incubator rotating at 110 rpm at 23° C. under continuous illumination (with illuminance of 10 klx.) with carbon dioxide and humidity under natural conditions. Tenth day (after 240 hours) after starting the cultivation, the whole culturing solution in each area was filtrated under suction, and the fresh weight (raw weight) (g) of the callus cell was measured. This was made as the amount in reproduction of green cells, and the improved degree in reproduction of green cells was measured by the above-described formula.
# tomato “Momotato” = test: Tomato pot test, soil treatment: SPAD value, dry weight, leaf-area, ascorbic acid and nitrate ion in the blade part; type: in vivo; settings: for Concentration of ascorbic acid in the blade part / Concentration of nitrate ion in the blade part / Dry weight of plant / Leaf-area: 3rd day after 7th treatment, relative to control area = 100; for SPAD value: soil treated 7 times weekly, about 50 ml per pot, in 3000-fold Otsuka OKF2, 3rd day after 7th treatment, control area 34.3
# Experimental: (§1) The SPAD values in the test and control areas grown under the same conditions are measured by Minolta Chlorophyll Meter SPAD 502 (supplied by Minolta Co., Ltd.). This is an apparatus to measure the amount of chlorophyll of plants (leaves) without destruction. Raw leaves are inserted into this apparatus and irradiated with light (stroboscopic emission by a xenon lamp). The transmission light is passed through a filter having 670 nm of the maximum wavelength to be absorbed by chlorophyll and another filter having 750 nm of the non-specific absorption band of a polymer such as protein, the difference in light absorption amounts at both wavelengths is measured by an integrated circuit and converted digitally, and then the value is expressed. The value is indicated in terms of numerical values between zero to 80 (SPAD value). The SPAD value has a high correlation with the chlorophyll content per unit area of a leaf. The following regression formula is satisfied between the value (X) measured by SPAD 502 and the chlorophyll content (Y) (mg/100 cm^2) (Shokubutsu Eiyo Jikken Ho (translated as Method for testing nutrition of plants), 2nd press., pp. 366-367 issued on Apr. 20th, 1991 by Hakuyu Sha K. K.).
# (§2) The improved degree of the SPAD value in the present invention is calculated as follows: Improved degree of the SPAD value=(SPAD value in test area)−(SPAD value in control area).
# (§3) The measuring time of the SPAD is not limited but only necessitates that the area of a leaf of the plant reaches to an area (about 5 mm×5 mm or more) measurable by a SPAD meter after a treatment with the substance acting as the plant-activating agent. The measurement of the SPAD value is carried out at least 20 times on the same leaf position of a plant treated with the substance acting as the plant-activating agent and of another plant not treated with the substance acting as a plant-activating agent, and the average value thereof is used.
# (§4) The increased amount in weight of a plant (b) is calculated from fresh weights or dry weights in the test area and control area in which plants have been grown under the same conditions, like in the above-mentioned [i]. […] The weight of a plant is measured as follows. Each and all plants treated with the substance acting as the plant-activating agent (test area) and not treated with the substance acting as the plant-activating agent (control area) are taken out of a cultivation apparatus (e.g. a pot), soil and contaminations adhering to roots are washed away by running water sufficiently, and respective weights are measured (fresh weight). Each of the plants is dried at 70° C. for 5 days and the weight thereof after the drying is measured (dry weight). Increased amounts in weight of plants are calculated respectively by the following manner. Herein, though any of the fresh weight and dry weight may be calculated, the dry weight is preferably calculated for directly reflecting the net weight of an anabolite (assimilate). Increased amount (%) in weight (fresh weight) of a plant=[(fresh weight in test area−fresh weight in control area)/(fresh weight in control area)]×100 Increased amount (%) in weight (dry weight) of a plant=[(dry weight in test area−dry weight in control area)/(dry weight in control area)]×100
# (§5) The improved degree of leaf-area of a plant (c) is calculated from leaf-area of whole plants in the test area and control area in which plants have been grown in the same conditions, like in the above-mentioned [i]. The improved degree is preferably not less than 5%, more preferably not less than 7% and most preferably not less than 9%. In the present invention, the improved degree of leaf-area is measured using an automatic planimeter AAC-400 model (supplied by Hayashi Denko K. K.). This automatic planimeter is a device to detect, by a photo-electric element, the extent of blockage of scanning beam by a sample. According to this device, the minimum unit is 1 mm^2, the maximum display number can be shown up to 99999.99 cm^2. […]
# spinach “Esper” = test: Spinach pot test, soil treatment: SPAD value, dry weight, leaf-area, ascorbic acid and nitrate ion in the blade part; type: in vivo; settings: 3rd day after 5th treatment; for Concentration of ascorbic acid in the blade part / Concentration of nitrate ion in the blade part / Dry weight of plant / Leaf-area: relative to control area = 100; for SPAD value: soil treated 5 times weekly, about 150 ml per pot, in water, control area 43.1
# Experimental: as §1, §2, §3, §4, §5
Molecule,Improved degree in reproduction of green cells (liverwort callus cells),Concentration of ascorbic acid in the blade part (tomato “Momotato”) [%],Concentration of nitrate ion in the blade part (tomato “Momotato”) [%],Dry weight of plant (tomato “Momotato”) [%],Leaf-area (tomato “Momotato”) [%],SPAD value (tomato “Momotato”) [point],other results
"O=C([O-])CCC(=O)[O-].[Na+].[Na+] [Comparative product 5-2, Sodium succinate, reference compound]",91,,,,,,
"O=C([O-])CN(CCN(CC(=O)[O-])CC(=O)[O-])CC(=O)[O-].[Na+].[Na+].[Na+].[Na+] [Comparative product 5-3, EDTA-4Na, reference compound]",90,,,,,,
"CCCCCCCCCCCCCCCCCCOCCCCCCCCCCCCCCCCCC [Inventive product 3-9, Distearyl ether]",,134,79,120,112,38.1,
"CC(C)C[C@H](N)C(=O)O [Inventive product 4-6, L-leucine]",,,,,,,Concentration of ascorbic acid in the blade part (spinach “Esper”): 113%; Concentration of nitrate ion in the blade part (spinach “Esper”): 85%; Dry weight of plant (spinach “Esper”): 118%; Leaf-area (spinach “Esper”): 110%; SPAD value (spinach “Esper”): 49.0 point
"CCCCCCCCCCCCCCCCCCOCCCCCCCCCCCCCCCCCC [Inventive product 4-9, Distearyl ether]",,,,,,,Concentration of ascorbic acid in the blade part (spinach “Esper”): 120%; Concentration of nitrate ion in the blade part (spinach “Esper”): 73%; Dry weight of plant (spinach “Esper”): 116%; Leaf-area (spinach “Esper”): 111%; SPAD value (spinach “Esper”): 49.5 point
"CCCCCCCCCCCCCCCCCC(=O)O [Inventive product 5-1, Stearic acid]",120,,,,,,
"CCCCCCCCCCCCCCCC(=O)O [Inventive product 5-2, Palmitic acid]",110,,,,,,
"O=S(=O)([O-])CCO.[Na+] [Inventive product 5-3, Sodium isethionate]",115,,,,,,
"N[C@@H](CCC(=O)[O-])C(=O)[O-].[Na+].[Na+] [Inventive product 5-4, Sodium glutamate]",105,,,,,,
"CCCCCCCCCCCCCCCCCCO [Inventive product 5-5, Stearyl alcohol]",140,,,,,,
"CCCCCCCC/C=C\CCCCCCCCNC(=O)CC(O)(CC(=O)O)C(=O)O (stereo not shown) [Inventive product 5-8, Citric acid oleyl amide]",125,,,,,,
"CCCCCCCCCCCCCCCCCCOCCCCCCCCCCCCCCCCCC [Inventive product 5-9, Distearyl ether]",135,,,,,,
"CCCCCCCCCCCCCCCCCCOC(=O)CCCCCCCCCCCCCCCCC [Inventive product 5-10, Stearyl sterate]",125,,,,,,
"CCCCCCCCCCCCCCCCCC(=O)OCC(CO)(CO)CO [Inventive product 5-14, Pentaerythritol monostearate]",108,,,,,,
"CCCCCCCCCCCCCCCCCCOC(=O)C(O)CO (stereo not shown) [Inventive product 5-17, Glyceric acid stearyl ester]",108,,,,,,
Hexaglycerol monostearate [Inventive product 3-16],,119,84,115,108,36.8,
POE(1) stearyl ether [Inventive product 3-11],,116,89,114,108,37,
POE(1) stearyl ether [Inventive product 4-11],,,,,,,Concentration of ascorbic acid in the blade part (spinach “Esper”): 114%; Concentration of nitrate ion in the blade part (spinach “Esper”): 86%; Dry weight of plant (spinach “Esper”): 112%; Leaf-area (spinach “Esper”): 110%; SPAD value (spinach “Esper”): 46.8 point
POE(6) sorbitan monolaurate [Comparative product 3-3],,101,99,100,102,35.0,
POE(8) oleyl ether [Comparative product 3-2],,102,98,101,103,35.0,
POE(20) sorbitan monooleate [Comparative product 3-1],,100,99,103,102,35.1,
"POE(20) sorbitan monooleate [Comparative product 4-1, reference compound]",,,,,,,Concentration of ascorbic acid in the blade part (spinach “Esper”): 98%; Concentration of nitrate ion in the blade part (spinach “Esper”): 100%; Dry weight of plant (spinach “Esper”): 101%; Leaf-area (spinach “Esper”): 96%; SPAD value (spinach “Esper”): 43.5 point
POE(20) sorbitan tristearate [Comparative product 3-5],,102,98,101,101,35.1,
Sodium POE(3) lauryl ether sulfate [Comparative product 3-4],,101,100,100,100,34.9,
"Sodium POE(3) lauryl ether sulfate [Comparative product 4-2, reference compound]",,,,,,,Concentration of ascorbic acid in the blade part (spinach “Esper”): 95%; Concentration of nitrate ion in the blade part (spinach “Esper”): 101%; Dry weight of plant (spinach “Esper”): 98%; Leaf-area (spinach “Esper”): 95%; SPAD value (spinach “Esper”): 42.5 point
Vitamin B12 [Inventive product 4-2],,,,,,,Concentration of ascorbic acid in the blade part (spinach “Esper”): 111%; Concentration of nitrate ion in the blade part (spinach “Esper”): 85%; Dry weight of plant (spinach “Esper”): 115%; Leaf-area (spinach “Esper”): 108%; SPAD value (spinach “Esper”): 45.9 point
